Laboratory results from patent US20070128217A1 (priority 2003, published 2007).

Experiments:
[1] = system: antibodies in sera from SARS patients (sera 1a, 1b, 2, 6, 37, 62, London, SARS-yellow, SARS-green); format: binding, human; design: Binding of serum 6 to linear peptides of protein X1 of SARS-CoV Urbani / Binding of serum 37 to linear peptides of protein X1 of SARS-CoV Urbani / Binding of serum 6 to looped/cyclic peptide (PEPSCAN-ELISA) / Binding of serum 37 to looped/cyclic peptide (PEPSCAN-ELISA) / Binding of serum 37 to looped/cyclic peptides of protein X1 of SARS-CoV Urbani / Binding of serum 6 to linear peptides of protein X2 / Binding of serum 37 to linear peptides of protein X2 / Binding of serum 37 to looped/cyclic peptides of protein X2 of SARS-CoV Urbani / Binding of serum 6 to linear peptides of protein M of SARS-CoV Urbani / Binding of serum 37 to linear peptides of protein M of SARS-CoV Urbani / Binding of serum 6 to looped/cyclic peptides of protein M of SARS-CoV Urbani / Binding of serum 37 to looped/cyclic peptides of protein M of SARS-CoV Urbani / Binding of serum 6 to linear peptides of protein X3 of SARS-CoV Urbani / Binding of serum 37 to linear peptides of protein X3 of SARS-CoV Urbani / Binding of serum 37 to looped/cyclic peptides of protein X3 of SARS-CoV Urbani / Binding of serum 6 to linear peptides of protein X4 of SARS-CoV Urbani / Binding of serum 37 to linear peptides of protein X4 of SARS-CoV Urbani / Binding of serum 37 to looped/cyclic peptides of protein X4 of SARS-CoV Urbani / Binding of serum 6 to linear peptides of protein X5 of SARS-CoV Urbani / Binding of serum 37 to linear peptides of protein X5 of SARS-CoV Urbani / Binding of serum 37 to looped/cyclic peptides of protein X5 of SARS-CoV Urbani / Binding of serum 6 to linear peptides of protein N of SARS-CoV Urbani / Binding of serum 37 to linear peptides of protein N of SARS-CoV Urbani / Binding of serum 6 to linear peptide (PEPSCAN-ELISA) / Binding of serum 1a to looped/cyclic peptides of protein N of SARS-CoV Urbani / Binding of serum 1b to looped/cyclic peptides of protein N of SARS-CoV Urbani / Binding of serum 2 to looped/cyclic peptides of protein N of SARS-CoV Urbani / Binding of serum 6 to looped/cyclic peptides of protein N of SARS-CoV Urbani / Binding of serum 37 to looped/cyclic peptides of protein N of SARS-CoV Urbani / Binding of serum 62 to looped/cyclic peptides of protein N of SARS-CoV Urbani / Binding of serum London to looped/cyclic peptides of protein N of SARS-CoV Urbani / Binding of serum SARS-green to looped/cyclic peptides of protein N of SARS-CoV Urbani: unit not given here
[2] = system: control sera (pooled serum of ten healthy LUMC hospital workers; commercial negative donor pooled serum from the Dutch bloodbank); format: binding, human; design: Binding of Control serum LUMC to linear peptides / Binding of Control serum Blood-bank to linear peptides / Binding of Control serum LUMC to looped peptides / Binding of Control Serum Blood-Bank to Looped peptides / Binding of Control serum LUMC to linear peptides of the protein M of SARS-CoV Urbani / Binding of Control serum Blood-bank to linear peptides of the protein M of SARS-CoV Urbani / Binding of Control serum LUMC to looped peptides of the protein M of SARS-CoV Urbani / Binding of Control Serum Blood-Bank to Looped peptides of the protein M of SARS-CoV Urbani: unit not given here
[3] = system: rabbit serum obtained by immunizing a rabbit with the SARS-CoV strain Frankfurt 1; format: binding; design: Binding of a rabbit serum to linear peptides / Binding of a rabbit serum to looped peptides / Rabbit serum linear peptides / Rabbit serum looped peptides / Binding of a rabbit serum to linear peptides of protein N of SARS-CoV Urbani (Rabbit serum linear peptides) / Binding of a rabbit serum to looped/cyclic peptides of protein N of SARS-CoV Urbani (Rabbit serum looped peptides): unit not given here

ELLIQQWIQFMMSRR
0.5: Binding of serum 1a to looped/cyclic peptides of protein X2 of SARS-CoV Urbani [1] | Binding of serum 1b to linear peptides of protein X2 [1] | Binding of serum 2 to looped/cyclic peptides of protein X2 of SARS-CoV Urbani [1] | Binding of serum 37 to looped/cyclic peptides of protein X2 of SARS-CoV Urbani [1] | Binding of Control serum Blood-bank to linear peptides [2] | Binding of Control serum LUMC to looped peptides [2]
0.2: Binding of serum London to looped/cyclic peptides of protein X2 of SARS-CoV Urbani [1]
0.7: Binding of serum 1a to linear peptides of protein X2 [1]
0.6: Binding of serum 37 to linear peptides of protein X2 [1] | Binding of serum 62 to linear peptides of protein X2 [1] | Binding of serum 62 to looped/cyclic peptides of protein X2 of SARS-CoV Urbani [1] | Binding of serum SARS-green to linear peptides of protein X2 [1] | Binding of Control Serum Blood-Bank to Looped peptides [2]
0.3: Binding of serum 6 to linear peptides of protein X2 [1] | Binding of serum 6 to looped/cyclic peptides of protein X2 of SARS-CoV Urbani [1]
0.8: Binding of serum SARS-yellow to linear peptides of protein X2 [1]
0.4: Binding of serum 1b to looped/cyclic peptides of protein X2 of SARS-CoV Urbani [1] | Binding of serum 2 to linear peptides of protein X2 [1] | Binding of serum London to linear peptides of protein X2 [1] | Binding of serum SARS-green to looped/cyclic peptides of protein X2 of SARS-CoV Urbani [1] | Binding of serum SARS-yellow to looped/cyclic peptides of protein X2 of SARS-CoV Urbani [1] | Binding of Control serum LUMC to linear peptides [2] | Binding of a rabbit serum to linear peptides [3] | Binding of a rabbit serum to looped peptides [3]

ELVIGAVIIRGHLRM
0.2: Binding of serum London to looped/cyclic peptides of protein M of SARS-CoV Urbani [1]
0.3: Binding of serum 6 to linear peptides of protein M of SARS-CoV Urbani [1] | Binding of serum London to linear peptides of protein M of SARS-CoV Urbani [1] | Binding of serum SARS-green to linear peptides of protein M of SARS-CoV Urbani [1] | Binding of serum SARS-green to looped/cyclic peptides of protein M of SARS-CoV Urbani [1]
0.5: Binding of Control serum LUMC to linear peptides of the protein M of SARS-CoV Urbani [2]
0.8: Binding of serum 1a to linear peptides of protein M of SARS-CoV Urbani [1] | Binding of serum 1a to looped/cyclic peptides of protein M of SARS-CoV Urbani [1] | Binding of serum 37 to linear peptides of protein M of SARS-CoV Urbani [1] | Binding of serum 62 to linear peptides of protein M of SARS-CoV Urbani [1] | Rabbit serum linear peptides [3]
0.1: Binding of serum SARS-yellow to linear peptides of protein M of SARS-CoV Urbani [1] | Rabbit serum looped peptides [3]
0.6: Binding of serum 1b to linear peptides of protein M of SARS-CoV Urbani [1] | Binding of serum 62 to looped/cyclic peptides of protein M of SARS-CoV Urbani [1] | Binding of serum SARS-yellow to looped/cyclic peptides of protein M of SARS-CoV Urbani [1] | Binding of Control serum LUMC to looped peptides of the protein M of SARS-CoV Urbani [2]
0.4: Binding of serum 1b to looped/cyclic peptides of protein M of SARS-CoV Urbani [1]
0.7: Binding of serum 2 to linear peptides of protein M of SARS-CoV Urbani [1] | Binding of serum 2 to looped/cyclic peptides of protein M of SARS-CoV Urbani [1] | Binding of serum 6 to looped/cyclic peptides of protein M of SARS-CoV Urbani [1] | Binding of serum 37 to looped/cyclic peptides of protein M of SARS-CoV Urbani [1] | Binding of Control Serum Blood-Bank to Looped peptides of the protein M of SARS-CoV Urbani [2] | Binding of Control serum Blood-bank to linear peptides of the protein M of SARS-CoV Urbani [2]

ENATFFIFNKLVKDP
0.2: Binding of serum London to linear peptides of protein X1 of SARS-CoV Urbani [1] | Binding of serum London to looped/cyclic peptides of protein X1 of SARS-CoV Urbani [1] | Binding of serum SARS-green to looped/cyclic peptides of protein X1 of SARS-CoV Urbani [1] | Binding of serum SARS-yellow to linear peptides of protein X1 of SARS-CoV Urbani [1] | Binding of serum SARS-yellow to looped/cyclic peptides of protein X1 of SARS-CoV Urbani [1]
0.0: Binding of serum SARS-green to linear peptides of protein X1 of SARS-CoV Urbani [1]
0.6: Binding of serum 1a to linear peptides of protein X1 of SARS-CoV Urbani [1]
0.4: Binding of serum 1a to looped/cyclic peptides of protein X1 of SARS-CoV Urbani [1] | Binding of serum 1b to linear peptides of protein X1 of SARS-CoV Urbani [1] | Binding of serum 6 to linear peptides of protein X1 of SARS-CoV Urbani [1] | Binding of serum 6 to looped/cyclic peptides of protein X1 of SARS-CoV Urbani [1] | Binding of serum 37 to looped/cyclic peptides of protein X1 of SARS-CoV Urbani [1] | Binding of serum 62 to linear peptides of protein X1 of SARS-CoV Urbani [1] | Binding of Control serum LUMC to linear peptides [2] | Binding of Control serum LUMC to looped peptides [2]
0.7: Binding of Control Serum Blood-Bank to Looped peptides [2]
0.1: Binding of a rabbit serum to linear peptides [3]
0.5: Binding of serum 2 to linear peptides of protein X1 of SARS-CoV Urbani [1] | Binding of serum 2 to looped/cyclic peptides of protein X1 of SARS-CoV Urbani [1] | Binding of serum 37 to linear peptides of protein X1 of SARS-CoV Urbani [1] | Binding of serum 62 to looped/cyclic peptides of protein X1 of SARS-CoV Urbani [1] | Binding of Control serum Blood-bank to linear peptides [2] | Binding of a rabbit serum to looped peptides [3]
0.3: Binding of serum 1b to looped/cyclic peptides of protein X1 of SARS-CoV Urbani [1]
